From patent US6031073A, “Cyclic polypeptides comprising a thioether linkage and methods for their preparation” (La Jolla Pharmaceutical Company, priority 1997, dated 2000)
Numbered stars: 1 amine (or outer) side, 2 acyl side, 3 side chain; on linkers, the order of the positions; unused ones are H or OH. Bridge positions count the residues as written; N and C are the ends. Square brackets hold non-standard residues; d marks the D form. Peptide text beside a SMILES is read from it. Abu(4-yl) = O=C([C@H](CC[*:3])N[*:1])[*:2]; hCys = N[C@@H](CCS)C(=O)O

Tests used:
[1] = biological target: anticardiolipin antibody (serum of patient ACA-6501); test: competitive ELISA, binding of patient ACA-6501 serum to cardiolipin/β2-GPI coated plate; parameters: species or system human; details: for IC50: amount of peptide that inhibited the human serum's binding by 50%, serum of patient ACA-6501 (GPL score 1500)
Experimental: (§1) The binding affinities of a number of the thioether cyclic polypeptides of the present invention to anticardiolipin antibody were determined by a competitive ELISA (i.e., enzyme-linked immunosorbent assay) and compared with binding affinities of the corresponding disulfide cyclic polypeptides (e.g., 3G3, 2G3, and G3).
(§2) Of 96 wells of a flat-bottom Immulon I microtiter plate (Dynatech Labs, Alexandria, Va.), 94 wells were coated with […] cardiolipin per well in 30 mL, of ethanol. The remaining two wells were used as controls and each received 30 mL, of ethanol. After overnight evaporation at 4° C., the plate was blocked for 2 hours at room temperature with 200 mL of 5% (w/v) fish gelatin in phosphate buffered saline (i.e., PBS, 0.15 M NaCl and 0.01 M Na2 HPO4 at pH 7.2). The plate was washed five times in Tris buffered saline (i.e., TBS, 0.15 M NaCl and 0.05 M Tris-HCl at pH 8.5). Then, β2 -glycoprotein I (i.e., β2 -GPI) was added as […] of 2.3% (v/v) IgG-depleted human serum (Sigma Chemical Co.) and incubated for 2 hours at room temperature.
(§3) During this incubation, peptide solutions (around 2 mg/mL) were prepared by dissolving thioether cyclic peptides in 3% fish gelatin in TBS. The serums of patient ACA-6501, who has a GPL (i.e., IgG Phospholipid) score of 1500, and patient ACA-6701, who has a GPL score of 102, were diluted about 40-fold in 3% fish gelatin in TBS-PBS (1:1). Variable amounts of each of peptides were combined with 22 mL of each of the diluted human serums and then made up to the final volume of 220 mL with 3% fish gelatin in TBS-PBS (1:1). For each peptide, at least four peptide concentrations were employed and each data point was determined in duplicate.
(§4) After 5 washes with TFBS, 100 mL of the peptide/human serum solution was added and the microplate was agitated at 40 rpm in an orbital shaker (American Scientific, Rotator V) for one hour at room temperature. The plate was washed extensively with TBS (5 times) and 100 mL of diluted (1/1000) alkaline phosphatase-conjugated goat anti-human IgG (Zymed, South San Francisco, Calif.) in 0.5% (w/v) BSA-TBS was added to each well (i.e., bovine serum albumin, BSA). The plate was then incubated for one hour at room temperature followed by addition of […]/well of PPMP solution (3 g/L phenolphthalein monophosphate plus 26.7 g/L 2-amino-2-methyl-1-propanol in water). The plate was allowed to develop at room temperature for 21 min and the reaction was stopped by adding 50 mL of 0.2 M Na2 HPO4 (Mallinckrodt) to each well. Blanks consisted of protein-coated wells that received similar treatment except human serum was not added to these wells. The plate was read at 550 nm using a microplate reader (Bio-Tek Instruments, Model EL 311).
(§5) Absorbance vs. amount of peptide added was plotted using Graph Pad Prism (Graph Pad Software, Inc.). The amount of peptide that inhibited the human serum's binding by 50%, known as IC50, was calculated from the graph at the intersection of half-maximal absorbance with amount of peptide added.

[2] = biological target: anticardiolipin antibody (serum of patient ACA-6701); test: competitive ELISA, binding of patient ACA-6701 serum to cardiolipin/β2-GPI coated plate; details: amount of peptide that inhibited the human serum's binding by 50%; serum of patient ACA-6701 (GPL score 102)
Experimental: as §1, §2, §3, §4, §5

SMILES | IC50 [1] | IC50 [2] | biological activity in comparison with the corresponding disulfide cyclic peptide ([1]; general statement on Table 1 (sera ACA-6501 and ACA-6701)) | activity relative to disulfide peptide G3 ([1]; patient ACA-6501)
CC(C)C[C@@H]1NC(=O)[C@@H](NC(=O)[C@@H]2CCCN2C(=O)CN)CSCC[C@@H](C(=O)N2CCC[C@H]2C(=O)NCC(=O)O)NC(=O)[C@H](CC(C)C)NC(=O)[C@H](CCCCN)NC(=O)CNC(=O)[C@H](CC(C)C)NC(=O)[C@H](C(C)C)NC(=O)CNC1=O (single isomer, unassigned) [l-2G3-METE] | 209 µM | 486 µM |  | 
CC(C)C[C@@H]1NC(=O)C(N)CSC[C@@H](C(N)=O)NC(=O)[C@H](CC(C)C)NC(=O)[C@H](CCCCN)NC(=O)CNC(=O)[C@H](CC(C)C)NC(=O)[C@H](C(C)C)NC(=O)CNC1=O (stereo partly drawn) [G3-MMTE] | 126 µM | 57 µM |  | 
CC(C)C[C@@H]1NC(=O)C(NC(=O)[C@@H]2CCCN2C(=O)CN)CSC[C@@H](C(=O)N2CCC[C@H]2C(=O)NCC(=O)O)NC(=O)[C@H](CC(C)C)NC(=O)[C@H](CCCCN)NC(=O)CNC(=O)[C@H](CC(C)C)NC(=O)[C@H](C(C)C)NC(=O)CNC1=O (stereo partly drawn) [2G3-MMTE] | > 678 µM | > 678 µM |  | 
CC(C)C[C@@H]1NC(=O)[C@H](CCCCN)NC(=O)CNC(=O)[C@H](CC(C)C)NC(=O)[C@H](C(C)C)NC(=O)CNC(=O)[C@H](CC(C)C)NC(=O)[C@@H](N)CSCC[C@@H](C(N)=O)NC1=O [G3-METE] (H-CLGVLGKL[Abu(4-yl)]-NH2; thioether 1-9) | 104 µM | 36 µM |  | 
CC(C)C[C@@H]1NC(=O)C(NC(=O)[C@@H]2CCCN2C(=O)CNC(=O)[C@H](C)N)CSC[C@@H](C(=O)N2CCC[C@H]2C(=O)NCC(=O)O)NC(=O)[C@H](CC(C)C)NC(=O)[C@H](CCCCN)NC(=O)CNC(=O)[C@H](CC(C)C)NC(=O)[C@H](C(C)C)NC(=O)CNC1=O (stereo partly drawn) [3G3-MMTE] | ~1050 µM | ~1050 µM |  | 
CC(C)C[C@@H]1NC(=O)[C@H](CCCCN)NC(=O)CNC(=O)[C@H](CC(C)C)NC(=O)[C@H](C(C)C)NC(=O)CNC(=O)[C@H](CC(C)C)NC(=O)[C@@H](N)CCSC[C@@H](C(N)=O)NC1=O [G3-EMTE] (H-[Abu(4-yl)]LGVLGKLC-NH2; thioether 1-9) | 52 µM | 34 µM | more active than the disulfide peptide G3 | about twice as active as G3
CC(C)C[C@@H]1NC(=O)[C@H](CCCCN)NC(=O)CNC(=O)[C@H](CC(C)C)NC(=O)[C@H](C(C)C)NC(=O)CNC(=O)[C@H](CC(C)C)NC(=O)[C@@H](N)CCSCC[C@@H](C(N)=O)NC1=O [G3-EETE] (H-[hCys]LGVLGKL[Abu(4-yl)]-NH2; thioether 1-9) | 89 µM | 40 µM |  | 
CC(C)C[C@@H]1NC(=O)[C@H](CCCCN)NC(=O)CNC(=O)[C@H](CC(C)C)NC(=O)[C@H](C(C)C)NC(=O)CNC(=O)[C@H](CC(C)C)NC(=O)[C@H](NC(=O)[C@@H]2CCCN2C(=O)CN)CSCC[C@@H](C(=O)N2CCC[C@H]2C(=O)NCC(=O)O)NC1=O (single isomer, unassigned) [d-2G3-METE] | 100 µM | 436 µM |  | 
